Experimental data reported in PMC12410356 (International Journal for Parasitology: Drugs and Drug …, 2025).

Assays:
[1] = system: E. multilocularis metacestode vesicles; assay: Phosphoglucose isomerase (PGI) release assay (damage-marker release) on metacestode vesicles; assay type: cell-based, Echinococcus multilocularis; conditions: 10 μM; for PGI d5 (relative PGI release): 5 days; for PGI d12 (relative PGI release): 12 days
Protocol: In order to quantify the drug-induced damage on whole metacestode vesicles, phosphoglucose isomerase (PGI) assay was performed as described previously ([Stadelmann et al., 2010]) with few adaptations published recently ([Kaethner et al., 2023]). In short, 8 to 12 weeks-old metacestode vesicles were purified using 2 % sucrose with subsequent washes in PBS. Metacestode vesicles were diluted in two volumes of DMEM without phenol red containing penicillin (100 U/mL) and streptomycin (100 μg/mL). […] 0.1 % DMSO was used as a negative solvent control and 0.1 % Triton X-100 was used as a positive total damage control. Metacestode vesicles were incubated under a humid, 5 % CO2 atmosphere at 37 °C. After five and twelve days, supernatant was taken and pictures were made using a Nikon SMZ18 stereo microscope (Nikon, Basel, Switzerland) at 7.5 × magnification. PGI activity in the supernatants was measured on a HIDEX Sense microplate reader (Hidex, Turku, Finland). The corresponding values of the DMSO controls were subtracted from the values of the compounds and then PGI activity was calculated relative to 0.1 % Triton X-100. […] IC50 values were calculated applying the 3 parameter Weibull type 1 in R for each of the three independent experiments ([Ritler et al., 2020]).

[2] = system: E. multilocularis metacestode vesicles; assay: Metacestode vesicle viability assay (ATP, CellTiter-Glo); assay type: cell-based, Echinococcus multilocularis; conditions: 10 μM, 12 days
Protocol: Viability was assessed after 12 days using the same metacestode vesicles as for the PGI release assay. Triton X-100 was added to each well to a final concentration of 0.1 %. Subsequently the metacestode vesicles were broken mechanically and 50 μL of the supernatant was mixed with 50 μL of CellTiter-Glo® buffer (Promega, Dübendorf, Switzerland). Measurements were performed on a HIDEX Sense microplate reader.

[3] = overview screen, singlets, relative to 0.1 % Triton X-100, DMSO subtracted
[4] = overview screen, singlets, relative to DMSO control
[5] = confirmation screen, triplicates, mean

| SMILES | PGI d5 (relative PGI release) [1, 3] [%] | PGI d12 (relative PGI release) [1, 3] [%] | Viability d12 (relative viability) [2, 4] [%] | PGI d5 (relative PGI release) [1, 5] [%] | PGI d12 (relative PGI release) [1, 5] [%] | Viability d12 (relative viability) [2, 5] [%] |
| --- | --- | --- | --- | --- | --- | --- |
| O=C(/C=C\n1cnc(-c2cc(C(F)(F)F)cc(C(F)(F)F)c2)n1)NNc1ccccn1 [MMV1580493] | 1.061 | 0.9356 | 159.076 |  |  |  |
| Cn1c2ccccc2c(=O)c2c(O)cccc21 [MMV1580500] | 1.098 | -0.5737 | 90.8954 |  |  |  |
| COc1cc(Cc2cc(N)nc(N)n2)cc(OC)c1OC [MMV1579846] | 1.265 | 19.1796 | 26.7191 |  |  |  |
| CCc1c(O)nc2ccc(F)cc2c1OCC1CCC1 [MMV1634395] | -0.4952 | -17.3568 | 119.991 |  |  |  |
| O=C(Nc1ccccc1)N(Cc1cc(Br)ccc1O)c1ccc(F)cc1 [MMV1581552] | -0.185 | -25.2603 | 81.6601 |  |  |  |
| Cl.Nc1nc(-c2ccccc2)nc2c1ncn2[C@@H]1O[C@H](COS(=O)(=O)NC(=O)c2ccccc2O)[C@@H](O)[C@H]1O [MMV1582488] | -1.401 | 11.4821 | 117.234 |  |  |  |
| Fc1ccc2c(/C=C/c3cccnc3)c[nH]c2c1 [MMV1578889] | -2.006 | 1.559 | 96.8566 |  |  |  |
| NC(=O)[C@@H]1CC[C@@H]2CN1C(=O)N2OS(=O)(=O)O [MMV1613560] | -1.526 | -13.4159 | 46.8418 |  |  |  |
| O=C(CSc1nnc(Br)n1-c1ccc(C2CC2)c2ccccc12)Nc1ccc(C(=O)O)cc1Cl [MMV1782213] | 1.533 | -0.7445 | 116.37 |  |  |  |
| O=C(NCc1ccc(F)cc1)c1c(O)c2ncccc2[nH]c1=O [MMV1782097] | 0.7945 | -0.6563 | 171.617 |  |  |  |
| CC(C)(C)NC(=O)[C@@H]1CN(Cc2cnc3occc3c2)CCN1C[C@@H](O)C[C@@H](Cc1ccccc1)C(=O)N[C@H]1c2ccccc2C[C@H]1O [MMV1782353] | 0.2673 | -0.3369 | 92.6641 |  |  |  |
| CCCCc1ccc(-c2nc(C)c(C(=O)OC)s2)cc1 [MMV1634392] | 0.3728 | 0.05977 | 152.475 |  |  |  |
| CCCCOC(=O)Nc1cc2nc(C3CCCCC3)[nH]c2cc1N(CC)CC [MMV1578842] | 1.645 | 57.0254 | 6.68 | -0.74 | 0.24 | 57.98 |
| CN(C/C=C/C#CC(C)(C)C)Cc1cccc2ccccc12 [MMV1634359] | -1.48 | -21.017 | 186.198 |  |  |  |
| CCc1cc(CCCOc2c(C)cc(-c3noc(C(F)(F)F)n3)cc2C)on1 [MMV1634556] | 0.6182 | -18.063 | 121.169 |  |  |  |
| Oc1ccc2[nH]c(-c3ccccc3)nc2c1 [MMV292173] | -3.6461 | 2.293 | 56.2358 |  |  |  |
| CNCC(=O)OCc1cccnc1N(C)C(=O)OC(C)[n+]1cnn(C[C@](O)(c2cc(F)ccc2F)[C@@H](C)c2nc(-c3ccc(C#N)cc3)cs2)c1 (stereo partly drawn) [MMV1634494] | -2.972 | -24.8266 | 42.7505 |  |  |  |
| Cc1cc(CCCOc2c(C)cc(-c3noc(C(F)(F)F)n3)cc2C)on1 [MMV690467] | 0.4162 | 0.2856 | 74.4224 |  |  |  |
| Cc1ccc(N2CCC(CCOc3ccc(S(C)(=O)=O)cc3)CC2)nn1 [MMV1634394] | 0.369 | -19.1494 | 249.705 |  |  |  |
